Source: patent US20210393645A1, “TREATMENT FOR PROGRESSIVE MULTIPLE SCLEROSIS” (UTI LIMITED PARTNERSHIP, priority 2016, published 2021)
Counter-ions that a name gives are not always drawn.

What follows are compounds tested on human neurons (assay: Iron (FeSO4) mediated neurotoxicity screening, MAP-2 positive neurons counted). Conditions: not given.
Type: cell-based
Procedure: Human neurons were isolated from brain tissues of therapeutically aborted 15-20 week old fetuses, in accordance with ethics approval of the University of Calgary ethics committee, after written informed consent of the pregnant donors. Neurons were isolated as previously described (Vecil et al., 2000) brain specimens were washed in phosphate buffered saline (PBS) to remove blood, followed by removal of meninges. […] Thereafter, the digestion was stopped by addition of 4 ml fetal calf serum (FCS). […] Cells were cultured in feeding medium of minimal essential medium (MEM) supplemented with 10% fetal bovine serum (FBS), 1 μM sodium pyruvate, 10 μM glutamine, 1× non-essential amino acids, 0.1% dextrose and 1% penicillin/streptomycin (all culture supplements from Invitrogen, Burlington, Canada). […] For experiments, the neuron-enriched cultures were retrypsinized and cells were plated in poly-L-ornithine pre-coated 96-well plates at a density of 100,000 cells/well in 100 μl of the complete medium supplemented with cytosine arabinoside. […] All conditions were performed in quadruplicates. A day later cells were fixed using 4% paraformaldehyde (PFA) and stored in PBS in 4° C.
Briefly, there were 80 compounds located in specific wells on each plate (e. g. B07). […] Each compound was supplied at a concentration of 10 mM dissolved in DMSO.
After filtering with a 0.2 μm filter, FeSO4 was added to cells in a final concentration of 25-50 μM in a volume of 50 μl medium to the cells. Rotenone was dissolved in dimethyl sulfoxide (DMSO) and used in a final concentration of 10 μM.
Staining was performed at room temperature. A blocking buffer was first introduced for 1 h followed by incubation with primary antibody overnight in 4° C.
Cell nuclei were stained with Hoechst S769121 (nuclear yellow). Cells were stored in 4° C. in the dark before imaging.
Images were taken using the automated ImageXpress® imaging system (Molecular Devices, Sunnyvale, Calif.) through a 10x objective microscope lens, displaying 4 or 9 sites per well. […] Cells were defined according to fluorescence intensity and size at different wavelengths. Data from all sites per well were averaged to one data point.
Neurons were pre-incubated with each compound for 1 h followed by application of FeSO4.
CC(C)[N+]1(C)[C@@H]2CC[C@H]1CC(OC(=O)C(CO)c1ccccc1)C2.[Br-] (stereo partly shown) [IPRATROPIUM BROMIDE] was tested, and the “Drug % control (mean): number of neurons normalized to untreated control” value was 63.39%.

Same assay, conditions: Homo sapiens, Neuron, 24 h, read-out: Drug % control (mean): number of neurons normalized to untreated control
Compound O=P1(N(CCCl)CCCl)NCCCO1 (stereo not shown) [CYCLOPHOSPHAMIDE HYDRATE] has a viability at 10 µM of 6.39%. For CN[C@H](CC(C)C)C(=O)N[C@H]1C(=O)N[C@@H](CC(N)=O)C(=O)N[C@H]2C(=O)N[C@H]3C(=O)N[C@H](C(=O)N[C@H](C(=O)O)c4cc(O)cc(O)c4-c4cc3ccc4O)[C@H](O)c3ccc(c(Cl)c3)Oc3cc2cc(c3O[C@@H]2O[C@H](CO)[C@@H](O)[C@H](O)[C@H]2O[C@H]2C[C@](C)(N)[C@H](O)[C@H](C)O2)Oc2ccc(cc2Cl)[C@H]1O [VANCOMYCIN HYDROCHLORIDE], the viability at 10 µM was 11.7%. With COc1cc(NC(C)CCCN)c2ncccc2c1 (stereo not shown) [PRIMAQUINE DIPHOSPHATE] the viability at 10 µM was 89.1%. In the case of O=C(O)c1cn(C2CC2)c2cc(N3CCNCC3)c(F)cc2c1=O [CIPROFLOXACIN], the viability at 10 µM is reported as 41%. CC[C@H](C)C(=O)O[C@H]1C[C@@H](C)C=C2C=C[C@H](C)[C@H](CC[C@@H]3C[C@@H](O)CC(=O)O3)[C@H]21 [LOVASTATIN] showed a viability at 10 µM of 32.2%. With Cn1c(=O)c2[nH]cnc2n(C)c1=O [THEOPHYLLINE] the viability at 10 µM was 23.3%.

Same assay, conditions: Homo sapiens, Neuron; drug 10 μM 1 h before FeSO4 25 or 50 μM; MAP-2 neurons after 24 h; read-out: Drug % control (mean): number of neurons normalized to untreated control
Work on Cc1cc(=O)n(-c2ccccc2)n1C [ANTIPYRINE] yielded a viability at 10 µM of 2.11%. CCCCNc1cc(C(=O)O)cc(S(N)(=O)=O)c1Oc1ccccc1 [BUMETANIDE] was tested, and the viability at 10 µM was 29.4%. Compound CC(=O)N[C@@H](CS)C(=O)O [ACETYLCYSTEINE] has a viability at 10 µM of 21.7%. With CC(C)NCC(O)COc1ccc(CC(N)=O)cc1 (stereo not shown) [ATENOLOL] the viability at 10 µM was 43.4%. O=C1C(CC[S+]([O-])c2ccccc2)C(=O)N(c2ccccc2)N1c1ccccc1 (stereo not shown) [SULFINPYRAZONE] was tested, and the viability at 10 µM was 46.5%. CN(C)[C@@H]1C(O)=C(C(N)=O)C(=O)[C@@]2(O)C(O)=C3C(=O)c4c(O)cccc4[C@@](C)(O)[C@H]3C[C@@H]12 [TETRACYCLINE HYDROCHLORIDE] showed a viability at 10 µM of 25%. Cc1onc(-c2ccccc2Cl)c1C(=O)N[C@@H]1C(=O)N2[C@@H]1SC(C)(C)[C@@H]2C(=O)O [CLOXACILLIN SODIUM] showed a viability at 10 µM of 28.4%. NC(=O)c1cnccn1 [PYRAZINAMIDE] showed a viability at 10 µM of 67.2%. For CN1CCC(OC(c2ccccc2)c2ccccc2)CC1 [HYDROCHLORIDE], the viability at 10 µM was 4.61%. Cn1cnc([N+](=O)[O-])c1Sc1ncnc2nc[nH]c12 [AZATHIOPRINE] was tested, and the viability at 10 µM was 4.65%. COCCOC(=O)C1=C(C)NC(C)=C(C(=O)OC(C)C)C1c1cccc([N+](=O)[O-])c1 (stereo not shown) [NIMODIPINE] was tested, and the viability at 10 µM was 62.8%. With CNCCC(Oc1ccc(C(F)(F)F)cc1)c1ccccc1 (stereo not shown) [FLUOXETINE] the viability at 10 µM was 81.4%. Work on CC1(C)NC(=O)N(c2ccc([N+](=O)[O-])c(C(F)(F)F)c2)C1=O [NILUTAMIDE] yielded a viability at 10 µM of 48.7%. NNC(=O)c1ccncc1 [ISONIAZID] was tested, and the viability at 10 µM was 2.41%. CCc1ccc(CCOc2ccc(CC3SC(=O)NC3=O)cc2)nc1 (stereo not shown) [PIOGLITAZONE HYDROCHLORIDE] gave a viability at 10 µM of 84.6%. Work on O=C1CC[C@@]2(O)[C@H]3Cc4ccc(O)c5c4[C@@]2(CCN3CC2CC2)[C@H]1O5 [NALTREXONE HYDROCHLORIDE] yielded a viability at 10 µM of 39.5%. COC(=O)[C@@H]1[C@H]2C[C@H]3c4[nH]c5ccccc5c4CCN3C[C@@H]2CC[C@@H]1O [YOHIMBINE HYDROCHLORIDE] was tested, and the viability at 10 µM was 100%. COC(=O)Nc1nc2ccc(C(=O)c3ccccc3)cc2[nH]1 [MEBENDAZOLE] showed a viability at 10 µM of 2.48%. Compound CCCCc1oc2ccccc2c1C(=O)c1cc(I)c(OCCN(CC)CC)c(I)c1 [AMIODARONE HYDROCHLORIDE] has a viability at 10 µM of 71.3%. CN(C)CCC(c1ccc(Br)cc1)c1ccccn1 (stereo not shown) [BROMPHENIRAMINE MALEATE] gave a viability at 10 µM of 79.9%. For C#C[C@]1(O)CC[C@H]2[C@@H]3CCC4=Cc5oncc5C[C@]4(C)[C@H]3CC[C@@]21C [DANAZOL], the viability at 10 µM was 4.37%. Compound NC(=O)NO [HYDROXYUREA] has a viability at 10 µM of 3.31%. Work on CCCN(CCC)S(=O)(=O)c1ccc(C(=O)O)cc1 [PROBENECID] yielded a viability at 10 µM of 71.5%. In the case of CC(C[N+](C)(C)C)OC(N)=O (stereo not shown) [BETHANECHOL CHLORIDE], the viability at 10 µM is reported as 16%. In the case of CN(Cc1cnc2nc(N)nc(N)c2n1)c1ccc(C(=O)N[C@@H](CCC(=O)O)C(=O)O)cc1 [METHOTREXATE], the viability at 10 µM is reported as 43.3%. CC(C(=O)O)c1cccc(C(=O)c2ccccc2)c1 (stereo not shown) [KETOPROFEN] was tested, and the viability at 10 µM was 44.3%. Work on NCC(CC(=O)O)c1ccc(Cl)cc1 (stereo not shown) [BACLOFEN] yielded a viability at 10 µM of 35.8%. With CCc1cccc2c3c([nH]c12)C(CC)(CC(=O)O)OCC3 (stereo not shown) [ETODOLAC] the viability at 10 µM was 34.4%. CC(=O)CCCCn1c(=O)c2c(ncn2C)n(C)c1=O [PENTOXIFYLLINE] gave a viability at 10 µM of 66.5%. Work on O=C1C(O)=C([C@H]2CC[C@H](c3ccc(Cl)cc3)CC2)C(=O)c2ccccc21 [ATOVAQUONE] yielded a viability at 10 µM of 67.7%. C[C@H]1c2cccc(O)c2C(=O)C2=C(O)[C@]3(O)C(=O)C(C(N)=O)=C(O)[C@@H](N(C)C)[C@@H]3[C@@H](O)[C@@H]21 [DOXYCYCLINE HYDROCHLORIDE] gave a viability at 10 µM of 12.7%. Clc1ccccc1C(c1ccccc1)(c1ccccc1)n1ccnc1 [CLOTRIMAZOLE] was tested, and the viability at 10 µM was 12.4%. CC(=O)Nc1ccc(O)cc1 [ACETAMINOPHEN] was tested, and the viability at 10 µM was 35.1%. Cc1ccc(C)c(OCCCC(C)(C)C(=O)O)c1 [GEMFIBROZIL] gave a viability at 10 µM of 5.05%. Compound CCC1(c2ccccc2)C(=O)NCNC1=O [PRIMIDONE] has a viability at 10 µM of 45.2%. CNC(=C[N+](=O)[O-])NCCSCc1ccc(CN(C)C)o1 [RANITIDINE] gave a viability at 10 µM of 40.2%. Compound CC(C)(C)NC[C@H](O)COc1nsnc1N1CCOCC1 [TIMOLOL MALEATE] has a viability at 10 µM of 11.1%. With CC(C)N(CCC(C(N)=O)(c1ccccc1)c1ccccn1)C(C)C (stereo not shown) [DISOPYRAMIDE PHOSPHATE] the viability at 10 µM was 4.63%. With O=C(CCCN1CCC(O)(c2ccc(Cl)cc2)CC1)c1ccc(F)cc1 [HALOPERIDOL] the viability at 10 µM was 6.12%. CN(C)C(=O)Oc1ccc[n+](C)c1 [PYRIDOSTIGMINE BROMIDE] showed a viability at 10 µM of 35.8%. COCCc1ccc(OCC(O)CNC(C)C)cc1 (stereo not shown) [METOPROLOL TARTRATE] gave a viability at 10 µM of 71.5%. With O=c1n(CCCN2CCN(c3cccc(Cl)c3)CC2)nc2ccccn12 [TRAZODONE HYDROCHLORIDE] the viability at 10 µM was 25.9%. O=C1CN(/N=C/c2ccc([N+](=O)[O-])o2)C(=O)N1 [NITROFURANTOIN] showed a viability at 10 µM of 17.8%. For NNCCc1ccccc1 [PHENELZINE SULFATE], the viability at 10 µM was 46.7%. Work on O=C(O)c1cc2cc(Cl)ccc2[nH]1 [5-CHLOROINDOLE-2-CARBOXYLIC ACID] yielded a viability at 10 µM of 37.3%. In the case of CN(C)C(=O)Oc1cccc([N+](C)(C)C)c1 [NEOSTIGMINE BROMIDE], the viability at 10 µM is reported as 44.8%. Compound Oc1ncnc2[nH]ncc12 [ALLOPURINOL] has a viability at 10 µM of 25.5%. With Cc1c(Cl)cccc1Nc1ccccc1C(=O)O [TOLFENAMIC ACID] the viability at 10 µM was 40.3%. Compound C[C@H](CCC(=O)O)[C@H]1CC[C@H]2[C@@H]3[C@@H](O)C[C@@H]4C[C@H](O)CC[C@]4(C)[C@H]3CC[C@]12C [URSODIOL] has a viability at 10 µM of 24.6%. Nc1nc2nc[nH]c2c(=S)[nH]1 [THIOGUANINE] gave a viability at 10 µM of 21.7%. In the case of CCCCNC(=O)NS(=O)(=O)c1ccc(C)cc1 [TOLBUTAMIDE], the viability at 10 µM is reported as 9.09%. For Cc1cc(N)c2ccccc2[n+]1CCCCCCCCCC[n+]1c(C)cc(N)c2ccccc21 [DEQUALINIUM CHLORIDE], the viability at 10 µM was 10.5%. Work on CN1CCC[C@@H]1CCO[C@](C)(c1ccccc1)c1ccc(Cl)cc1 [CLEMASTINE] yielded a viability at 10 µM of 6.19%. CN1CCN(C2=Nc3ccccc3Oc3ccc(Cl)cc32)CC1 [LOXAPINE SUCCINATE] gave a viability at 10 µM of 65.9%. Compound CCn1cc(C(=O)O)c(=O)c2cc(F)c(N3CCNCC3)cc21 [NORFLOXACIN] has a viability at 10 µM of 13.6%. CN(C)CCc1c[nH]c2ccc(CS(=O)(=O)N3CCCC3)cc12 [ALMOTRIPTAN] gave a viability at 10 µM of 94.4%.

Same assay, conditions: drug 10 μM 1 h before FeSO4 25 or 50 μM; MAP-2 neurons after 24 h
For CN(C)CC[C@@H](c1ccc(Cl)cc1)c1ccccn1.O=C(O)/C=C\C(=O)O [CHLORPHENIRAMINE(S) MALEATE], the “Drug % control (mean): number of neurons normalized to untreated control” value was 52.32%. CC(C)NCC(O)COc1cccc2ccccc12.Cl (racemic) [PROPRANOLOL HYDROCHLORIDE (+/−)] was tested, and the “Drug % control (mean): number of neurons normalized to untreated control” value was 66.49%. In the case of CN(C)CCOC(c1ccccc1)c1ccccc1.Cn1c(=O)c2[nH]c(Cl)nc2n(C)c1=O [DIMENHYDRINATE], the “Drug % control (mean): number of neurons normalized to untreated control” value is reported as 36.53%. With CC(C)c1c(C(=O)Nc2ccccc2)c(-c2ccccc2)c(-c2ccc(F)cc2)n1CC[C@@H](O)C[C@@H](O)CC(=O)[O-].CC(C)c1c(C(=O)Nc2ccccc2)c(-c2ccccc2)c(-c2ccc(F)cc2)n1CC[C@@H](O)C[C@@H](O)CC(=O)[O-].[Ca+2] [ATORVASTATIN CALCIUM] the “Drug % control (mean): number of neurons normalized to untreated control” value was 68.87%.
